Numbers after ± are expanded uncertainties.
Settings: 101.33 kPa, Liquid, Shanghai Precision & Scientific Instrument Co., LTD (DDS-307)

SMILES | electrical conductivity (298.15 K) [S/m] | electrical conductivity (303.15 K) [S/m] | electrical conductivity (308.15 K) [S/m] | electrical conductivity (313.15 K) [S/m] | electrical conductivity (318.15 K) [S/m]
CCCCO [butan-1-ol] | 4.4e-05 ± 2.6e-06 | 5.55e-05 ± 3.3e-06 | 6.58e-05 ± 4e-06 | 6.9e-05 ± 4.1e-06 | 8e-05 ± 4.8e-06
CC(C)O [propan-2-ol] | 5.2e-05 ± 3.1e-06 | 7e-05 ± 4.2e-06 | 7.5e-05 ± 4.5e-06 | 8.08e-05 ± 4.9e-06 | 8.43e-05 ± 5.1e-06
CCO [ethanol] | 0.000413 ± 2.5e-05 | 0.000504 ± 3e-05 | 0.000584 ± 3.5e-05 | 0.000644 ± 3.9e-05 | 0.000711 ± 4.3e-05
O [water] | – | 0.00287 ± 0.00017 | 0.00323 ± 0.00019 | 0.00349 ± 0.00021 | 0.00375 ± 0.00022

Reference: the NIST ThermoML archive (doi:10.1021/je100361s)
